{
  "source": "paper PMC5665932",
  "about": "“A novel peptide that improves metabolic parameters without adverse central nervous system effects” (Scientific Reports, 2017)",
  "key": {"CB1R": {"biological_target": "T1, CB1R (Mus musculus, UniProt P47746)", "T1 construct": "Membranes were prepared from 3T3-L1 cells endogenously expressing CB1R; endogenous in cells; host or cells: 3T3-L1 cells (membranes)", "T1 sequence (P47746 whole entry)": "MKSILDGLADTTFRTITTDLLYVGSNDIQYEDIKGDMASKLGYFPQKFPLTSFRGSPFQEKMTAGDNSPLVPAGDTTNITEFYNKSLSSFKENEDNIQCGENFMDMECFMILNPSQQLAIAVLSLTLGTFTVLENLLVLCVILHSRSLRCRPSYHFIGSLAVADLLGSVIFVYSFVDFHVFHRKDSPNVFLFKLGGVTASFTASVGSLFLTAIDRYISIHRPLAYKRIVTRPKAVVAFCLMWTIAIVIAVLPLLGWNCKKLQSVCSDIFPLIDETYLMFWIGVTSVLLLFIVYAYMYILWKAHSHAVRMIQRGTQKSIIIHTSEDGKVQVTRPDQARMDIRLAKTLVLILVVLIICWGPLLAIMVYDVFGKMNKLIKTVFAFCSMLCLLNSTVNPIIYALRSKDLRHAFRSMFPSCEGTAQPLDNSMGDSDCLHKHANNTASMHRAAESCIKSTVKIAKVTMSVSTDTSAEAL", "assay": "Displacement of [3H]SR141716A binding, membranes of 3T3-L1 cells", "details": "membranes (250 μg) of 3T3-L1 cells endogenously expressing CB1R, [3H]SR141716A 3 nM, Pep19 0–10 μM, 1 h at 30 °C, pH 7.8, n = 3; read-out: IC50, displaces [3H]SR141716A binding", "procedure": "Membranes were prepared from 3T3-L1 cells endogenously expressing CB1R, and displacement ligand binding assays were carried out as previously described[8] with minor modifications. Briefly, membranes (250 μg) were incubated with [^3H] SR141716A (3 nM) in 50 mM Tris-Cl, pH 7.8, containing 1 mM EGTA, 5 mM MgCl2, and protease inhibitor cocktail in the presence of Pep19 (0–10 μM) for 1 h at 30 °C. At the end of the incubation period, membranes were filtered using a Brandel filtration system and GF/B filters (presoaked for 2 h at room temperature with 0.1% polyethyleneimine containing 0.2% fatty acid free BSA), filters were washed 3 times with ice-cold 50 mM Tris-Cl (pH 7.4) and bound radioactivity measured using a liquid scintillation counter.\nSupplemental Figure 1. Ligand binding studies with Pep19. Membranes were prepared from 3T3L-1 cells endogenously expressing CB1R, and displacement ligand binding assays were carried out as previously described8 with minor modifications. Membranes (250 μg) were incubated with [3H]SR141716A (3 nM) in 50 mM Tris-Cl, pH 7.8, containing 1 mM EGTA, 5 mM MgCl2, and protease inhibitor cocktail in the presence of Pep19 (0-10 μM).\nValues in the absence of Pep19 were taken as 100%. Data represent mean ± […]\n(1 picture or pasted object on this page, not shown here)"}, "DIO Wistar rats": {"system": "DIO Wistar rats", "assay": "Tail-cuff blood pressure and heart rate in DIO rats", "type": "in vivo", "details": "oral by gavage, mean ± SEM", "procedure": "Measurements of systolic blood pressure were performed at the proximal part of the tail, by a tail-cuff method using the Kent RTBP2000 system and the Kent RTB001-R data acquisition system (Kent Scientific Corporation, Torrington, CT, USA) from 9 to 11 a.m. Before measurements, rats were warmed for 10 min and three stable consecutive measurements were taken and averaged after animals have been trained for proper adaptation to the procedures."}, "C57BL/6J mice": {"system": "C57BL/6J mice", "assay": "Tetrad cannabinoid tests (catalepsy, tail temperature, locomotor activity, hot plate)", "type": "in vivo", "details": "n = 6/group", "procedure": "C57BL/6J mice were treated i.p. with Pep19 (0.1 or 1 mg/kg), the CB1R agonist WIN55,212-2 (5 mg/kg) or vehicle (n = 6 per group) and evaluated in the tetrad cannabinoid tests. Another group of animals received Pep19 (0.1 or 1 mg/kg) or saline i.p. for 10 days, once a day. In the last day of treatment the animals were subjected to the tetrad cannabinoid tests 30 minutes after the i.p. administration. The CB1 agonist WIN55,212-2 (5 mg/kg) was administrated i.p. 30 minutes before the experiments as a positive control (n = 6 per group).\nIt was assayed by the bar test[40], 30 min after drug administration. Briefly, each mouse was placed on a bar oriented parallel to and approximately 4 cm above the bench surface. Cataleptic behavior was defined as the time the animal remained motionless holding on to the bar; cutoff = 300 s[41].\nIt was determined by using a thermal probe (Thermocom®, Nashua, NH 03062, EUA) positioned 50 cm of the animal. The mean of five pictures of five different tail regions was compared between a basal evaluation and another observation 35 min after drug administration.\nIt was determined by an open field test, in which a mouse was placed in a circular cage (40 cm diameter), 37 min after drug administration. The distance traveled by the animal was recorded for 10 min by the software ANY-MAZE (Stoelting).\nThe mouse was placed on a heated plate at 56 °C. An experimenter measured the time it took for the mouse to lick the paws or jump off of the hot plate; cutoff = 30 s[42]. The variation between a basal evaluation and another one taken 45 min after drug administration was defined as the result."}, "Male Wistar rats [1]": {"system": "Male Wistar rats", "assay": "Elevated plus maze", "type": "in vivo", "details": "100–600 µg/kg, one hour after administration, 5 min, n = 7–9/group", "procedure": "Male Wistar rats were tested in a wooden-made elevated plus maze according to Hefner and Holmes[43] one hour after vehicle or Pep19 i.p. administration (100–600 µg/kg). The percentage of entries, time spent in the open arms, and the number of enclosed arms entries for 5 min were analyzed by the Anymaze Software (version 4.5, Stoelting, USA). Locomotor activity and speed traveled were also recorded."}, "Male Wistar rats [2]": {"system": "Male Wistar rats", "assay": "Forced swim test", "type": "in vivo", "details": "first 5 min of the swim test, n = 6/group (Pep19), n = 8–10/group (rimonabant)", "procedure": "The forced swim test was based on previous designs. Male Wistar rats were placed in a cylindrical plexiglass tank (50 cm high and 30 cm diameter) filled with water (19 °C) up to a level of 25 cm from the bottom. The animal’s behavior during the first 5 min of the swim test was scored by a trained observer and the following measures were taken: (1) time spent swimming, defined as movements of all four limbs, swimming around the tank or diving and (2) time spent floating, defined as the time the animal remained immobile with only occasional slight movements to keep the body balanced and the nose above the water."}, "HEK293T cells": {"system": "HEK293T cells", "type": "cell-based", "details": "up to 100 µM, n = 3/group", "procedure": "(§1) HeLa and HEK293-T cells were cultured in DMEM (Dulbecco’s Modified Eagle Medium, Gibco®, USA) containing 10% fetal bovine serum (complete medium), penicillin and streptomycin (Gibco®, USA) at 37 °C and in presence of 5% of CO2. For cell counting, single cell suspension of HeLa and HEK293-T cells were rinsed with PBS and treated with 0.4% Trypan blue in PBS for 90 s. Excess dye was removed, and the cells were washed twice with PBS before counting. For a control of 100% permeabilized cells they were treated with 50% ethanol for 1 min and then stained as described above. In all of the experiments cellular viability was greater than 98% (data not shown). The MTT (3-(4,5-dimethylthiazol-2-yl)-2,5-diphenyltetrazolium bromide) tetrazolium reduction assays were conducted in a 96-well format. The optical density was measured at 570 nm using a SpectraMax M2 (Molecular Devices, Sunnyvale, CA, USA). Three independent experiments were conducted in triplicates for each treatment."}, "HeLa cells": {"system": "HeLa cells", "type": "cell-based", "details": "up to 100 µM, n = 3/group", "procedure": "as §1"}, "Male C57BL/6J mice": {"system": "Male C57BL/6J mice", "type": "in vivo", "details": "0.1 or 1 mg/kg i.p. for 10 days", "procedure": "Male C57BL/6J mice received a chronic treatment with Pep19 (0.1 or 1 mg/kg) or saline administrated i.p. for 10 days, once a day. The same animal was tested in the EPM and FST 30 and 35 minutes after the last injection, respectively.\nSupplemental Figure 2. In vivo assays showing results of chronic treatment with Pep19 i.p. for 10 days. To further confirm the lack of in vivo effects of Pep19, it was chronically administrated for 10 days, and the behavior effects were evaluated in the tetrad cannabinoid tests, consisting of (a) catalepsy, (b) tail temperature, (c) locomotor activity and (d) hot plate test. Note that no […]\n(saline) or Pep19 (one-way ANOVA followed by Tukey’s test, n = 6/group), […]\n(a-d; * P<0.05). In the elevated plus maze (e, f) the anxiety-like activity of chronic administration was evaluated following i.p. injections of 0.1 or 1 mg/kg […]\ngroups treated with vehicle or Pep19 (one-way ANOVA followed by Tukey’s […]\nlocomotor (g) and speed travelled (h) in the elevated plus maze. In the forced swim test (i), chronic administration of Pep19 i.p. for 10 days produced no significant differences (one-way ANOVA followed by Tukey’s test, n = 6-7/ […]"}},
  "note": "Where a SMILES comes first, the peptide text is derived from it.",
  "data": [
    {"smiles": "CC[C@H](C)[C@H](NC(=O)[C@@H](NC(=O)[C@@H](N)CC(=O)O)[C@@H](C)CC)C(=O)N[C@@H](C)C(=O)N[C@@H](CC(=O)O)C(=O)N[C@@H](CC(=O)O)C(=O)N[C@@H](CCC(=O)O)C(=O)N1CCC[C@H]1C(=O)N[C@@H](CC(C)C)C(=O)N[C@H](C(=O)O)[C@@H](C)O", "note": "[Pep19] (H-DIIADDEPLT-OH)", "values": [
      {"measurement": "IC50", "setting": "CB1R", "result": "~4.9", "unit": "pM"},
      {"measurement": "Heart rate", "setting": "DIO Wistar rats; 100 µg/Kg", "result": "405.3 ± 2.3 (n = 3) beats/min"},
      {"measurement": "Heart rate", "setting": "DIO Wistar rats; 300 µg/Kg", "result": "399.9 ± 5.8 (n = 3) beats/min"},
      {"measurement": "Heart rate", "setting": "DIO Wistar rats; 600 µg/Kg", "result": "408.5 ± 4.1 (n = 3) beats/min"},
      {"measurement": "cannabinoid tetrad after chronic treatment", "setting": "C57BL/6J mice; 0.1 or 1 mg/kg i.p. for 10 days, once a day, tested 30 minutes after last administration", "result": "significant differences were observed between the groups treated with vehicle"},
      {"measurement": "cannabinoid tetrad (catalepsy, hot plate, locomotor activity, tail temperature)", "setting": "C57BL/6J mice; 0.1 or 1 mg/kg i.p., single administration", "result": "has no effect on the cannabinoid tetrad"},
      {"measurement": "elevated plus maze: distance moved, speed, ratio of open/total arms entries and time spent", "setting": "Male Wistar rats [1]", "result": "did not alter"},
      {"measurement": "forced swim test: time spent swimming and time spent floating", "setting": "Male Wistar rats [2]", "result": "produced no significant differences"},
      {"measurement": "cell toxicity, MTT reduction assay", "setting": "HEK293T cells", "result": "has no ability to induce cell toxicity"},
      {"measurement": "cell toxicity, MTT reduction assay", "setting": "HeLa cells", "result": "has no ability to induce cell toxicity"},
      {"measurement": "elevated plus maze after chronic treatment: anxiety-like activity, locomotor and speed travelled", "setting": "Male C57BL/6J mice; 30 minutes after the last injection, n=6-7/group", "result": "no significant differences were observed"},
      {"measurement": "forced swim test after chronic treatment", "setting": "Male C57BL/6J mice; 35 minutes after the last injection, n = 6-7/group", "result": "produced no"}
    ]}
  ]
}
